Laboratory results reported in patent US9321737B2, “CDK8-CDK19 selective inhibitors and their use in anti-metastatic and chemopreventative methods for cancer” (SENEX BIOTECHNOLOGY INC, priority 2012, dated 2016).

Key:
[1] = Solubility in 20% propylene glycol; type: physicochemical; conditions: 1 mM, 40° C., 30 min, centrifuged, OD reading
Description: (§1) The compounds were also tested for solubility in 20% propylene glycol and in water, as follows. Compounds (dry powder) were dissolved in 20% propylene glycol at a concentration of 1 mM at a temperature of 40° C. with occasional vortexing. After 30 min, the solution was centrifuged at 10,000×g for 5 min. Serial dilutions of the cleared supernatant were prepared and used to measure the compound concentrations through OD reading, relative to 1 μM standard solution of the same compound. The results of the measurement were expressed as % solubility of the compound at 1 mM in 20% propylene glycol. To determine water solubility, the compounds (dry powder) were initially dissolved in water at a concentration of 100 mM at a temperature of 40° C. with occasional vortexing. After 30 min, the solution was centrifuged at 10,000×g for 5 min, and the formation of an insoluble pellet was monitored. At subsequent steps, the compound was attempted to be dissolved at lower concentrations, until no pellet was observed after centrifugation, indicating complete solution of the compound.

[2] = system: CDKI pathway (CMV promoter stimulation by p21) in HT1080 fibrosarcoma cells; assay: CDKI pathway inhibition cellular assay (CMV-GFP induction by IPTG-inducible p21); type: cell-based, human; conditions: IPTG-induced p21, CMV-GFP / Hoechst 33342, read-out: Cell-based Assay EC50
Description: The compounds described below are shown in Table 1 and the structures of some novel compounds according to the invention are shown in FIG. 1. […] All the compounds were tested for the ability to inhibit the CDKI pathway in a cellular assay described in our previous patent application PCT/US06/01046. This assay is based on the induction of green fluorescent protein (GFP) expression from the cytomegalovirus (CMV) promoter in human HT1080 fibrosarcoma cells that express CDKI p21 from an isopropyl-β-thio-galactoside (IPTG)-inducible promoter. The compound activity as a CDKI pathway inhibitor is measured by its ability to prevent the stimulation of the CMV promoter upon the addition of p21-inducing IPTG. CMV promoter activity is measured by the ratio of GFP fluorescence to the relative cell number, as determined by staining cellular DNA with Hoechst 33342.

[3] = Water solubility; type: physicochemical; conditions: 40° C., 30 min, no pellet after centrifugation
Description: as §1

[4] = system: MDA-MB-468; assay: MDA-MB-468 TNBC xenograft model; type: in vivo, female nude mice; conditions: 40 mg/kg Senexin B daily i.p.; 4 mg/kg doxorubicin two injections two weeks apart
Description: Female nude mice were inoculated with MDA-MB-468 cells, and once palpable tumors were formed, mice were randomized into 4 groups, treated daily i.p. with vehicle alone (n=12), 40 mg/kg Senexin B, two injections with 4 mg/kg doxorubicin two weeks apart, or doxorubicin combined with Senexin B (n=8 in each of the latter groups).

[5] = system: MDA-MB-468 TNBC tumor invasion; assay: Histological analysis of MDA-MB-468 tumor invasion (H&E); type: in vivo, female nude mice; conditions: tumors from FIG. 15B experiment
Excerpt: At the end of the experiment shown in FIG. 15B, mice were sacrificed, tumors were removed, formalin fixed, sectioned and processed for histological analysis after H&E staining.

[6] = system: MDA-MB-231; assay: MDA-MB-231 orthotopic TNBC xenograft; type: in vivo, female SCID mice; conditions: 1 mg/kg doxorubicin single dose, three rounds
Description: Once tumors were formed, mice were randomized into 4 cohorts (n=10) and treated, at 7-10 day intervals, with three rounds of: vehicle (5 daily doses), 1 mg/kg doxorubicin (single dose), 40 mg/kg Senexin B (5 daily doses) or doxorubicin (single dose)+Senexin B (5 daily doses).

Structure (SMILES): N#Cc1ccc2ncnc(NCCc3ccc(C(=O)N4CCCCC4)cc3)c2c1 [SNX2-1-152]
- % solubility at 1 mM in 20% propylene glycol [1]: 100%
- EC50 [2]: 3.83 µM

Structure (SMILES): COCCNC(=O)c1ccc(CCNc2ncnc3ccc(C#N)cc23)cc1 [SNX2-1-150]
- % solubility at 1 mM in 20% propylene glycol [1]: 100%
- Water Solubility [3]: Soluble at 10 mM
- EC50 [2]: 2.2 µM

Structure (SMILES): CN1CCN(C(=O)c2ccc(CCNc3ncnc4ccc(C#N)cc34)cc2)CC1 [SNX2-1-153]
- % solubility at 1 mM in 20% propylene glycol [1]: 100%
- Water Solubility [3]: Soluble at 10 mM
- EC50 [2]: 5.21 µM

Structure (SMILES): COc1cccc2c1C(=O)c1c(O)c3c(c(O)c1C2=O)C[C@@](O)(C(=O)CO)C[C@@H]3O[C@H]1C[C@H](N)[C@H](O)[C@H](C)O1 [doxorubicin, reference compound]
- tumor growth (tumor volumes after 30 days of treatment) [4]: significantly slowed down the tumor growth
- invasive or non-invasive tumor growth [5]: displayed invasive growth
- lower body weight than control mice [6]: about 15%

Structure (SMILES): CN(C)CCNC(=O)c1ccc(CCNc2ncnc3ccc(C#N)cc23)cc1 [SNX2-1-155]
- % solubility at 1 mM in 20% propylene glycol [1]: 100%
- Water Solubility [3]: Soluble at 10 mM
- EC50 [2]: 4.57 µM
